Measurements taken from patent US20080274060A1, “Therapeutic Foam” (priority 2005, published 2008).

Assay: In vitro absorption of foam/gas in fresh human venous blood
Type: in vitro ADME
Protocol: In vitro experiments were conducted to determine the absorption of foam made with different gases in fresh human venous blood.
A 20 ml polypropylene syringe barrel was prepared by puncturing its side wall with a relatively large hypodermic needle to make a hole approximately 1 mm in diameter. This hole was then covered by securing a piece of clear flexible vinyl sheet over it with clear adhesive tape. A small magnetic stirrer element was introduced into the syringe barrel and the plunger then replaced. 20 ml of human venous blood was then with withdrawn in the usual manner from a human subject using the specially prepared syringe fitted with a hypodermic needle.
The hypodermic needle was removed and the syringe then placed on a magnetic stirrer unit so that the magnetic element in the syringe thoroughly agitated the blood. The Luer nozzle of the syringe was then connected to a 50 cm piece of manometer tubing which was arranged horizontally and left open at one end. The manometer tubing was secured against a scale.
A 0.5 ml measuring syringe with a fine pre-fitted needle was then filled with foam made from 1% polidocanol solution and air.
The needle of the 0.5 ml syringe was then introduced through the vinyl sheet on the side wall of the 20 ml syringe. […] The 0.5 ml aliquot of foam was then injected quickly and simultaneously a timer started (t0). As the foam displaced blood in the 20 ml syringe, the column of blood from the 20 ml syringe was displaced into the manometer tubing and the distance along the tubing reached by the distal end of the blood column was noted against the scale. The scale itself comprised spaced marker lines equally spaced at about 1 cm intervals.
As the gas in the foam started to be absorbed by the blood, the blood in the manometer tubing started to recede back towards the syringe. After the column appeared to have stopped moving, the timer was stopped (tF). The position of the distal end was again noted.
In this experiment, the air foam test was only observed for a few minutes after tF. […] A 20 ml syringe of fresh human venous blood, as in the above experiments, was injected with a 0.5 ml aliquot of a foam containing a percentage of nitrogen. The contents of the syringe were agitated as above and a period of 24 hours allowed to elapse.

O=O [Oxygen gas, oxygen gas]
Absorbed volume at tF (0.5 ml aliquot in 20 ml blood): 0.46 mL
Unabsorbed gas % (at tF): 8%
Unabsorbed gas ml (at tF): 0.04 mL
Position of blood at tF ("z") (manometer scale intervals, 45 intervals approx. 0.5 ml): 5.5
tF (time until blood column stopped moving, 0.5 ml aliquot in 20 ml blood): 140 s
